Common to all, as to experiment: Competitive isoTOP-ABPP in situ (fragment-treated cells)
Common to all, as to type: cell-based

Test [1] addresses cysteines in MDA-MB-231 and Ramos cells (Homo sapiens, UniProt P83731). Conditions: 200 μM, insitu.
The target of test [2] is T1, cysteines in MDA-MB-231 and Ramos cells (Homo sapiens, UniProt P78417).
T1 sequence (P78417 1-241): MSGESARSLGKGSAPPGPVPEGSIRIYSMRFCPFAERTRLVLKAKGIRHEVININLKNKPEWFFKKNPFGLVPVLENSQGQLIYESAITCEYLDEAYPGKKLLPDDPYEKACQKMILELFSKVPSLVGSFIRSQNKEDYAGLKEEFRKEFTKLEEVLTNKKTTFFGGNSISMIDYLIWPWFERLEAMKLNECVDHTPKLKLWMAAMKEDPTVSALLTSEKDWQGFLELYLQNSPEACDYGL
Conditions: 200 μM, insitu.

Test [3] addresses T2, cysteines in MDA-MB-231 and Ramos cells (Homo sapiens, UniProt Q13155).
T2 sequence (Q13155 1-320): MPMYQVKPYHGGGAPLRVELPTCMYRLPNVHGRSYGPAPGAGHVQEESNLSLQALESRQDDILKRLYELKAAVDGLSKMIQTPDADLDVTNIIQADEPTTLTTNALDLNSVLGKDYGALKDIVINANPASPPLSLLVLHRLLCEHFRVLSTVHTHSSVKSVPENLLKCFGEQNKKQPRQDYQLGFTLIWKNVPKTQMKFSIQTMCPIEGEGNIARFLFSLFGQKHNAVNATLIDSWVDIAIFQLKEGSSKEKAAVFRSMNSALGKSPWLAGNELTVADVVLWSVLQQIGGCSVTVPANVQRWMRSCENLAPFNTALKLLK
Conditions: 200 μM, insitu, 231.

The target of test [4] is cysteines in MDA-MB-231 and Ramos cells (Homo sapiens, UniProt O60610). Conditions: 200 μM, insitu.
Chain of cysteines in MDA-MB-231 and Ramos cells (Homo sapiens, UniProt O60610) (O60610 whole entry): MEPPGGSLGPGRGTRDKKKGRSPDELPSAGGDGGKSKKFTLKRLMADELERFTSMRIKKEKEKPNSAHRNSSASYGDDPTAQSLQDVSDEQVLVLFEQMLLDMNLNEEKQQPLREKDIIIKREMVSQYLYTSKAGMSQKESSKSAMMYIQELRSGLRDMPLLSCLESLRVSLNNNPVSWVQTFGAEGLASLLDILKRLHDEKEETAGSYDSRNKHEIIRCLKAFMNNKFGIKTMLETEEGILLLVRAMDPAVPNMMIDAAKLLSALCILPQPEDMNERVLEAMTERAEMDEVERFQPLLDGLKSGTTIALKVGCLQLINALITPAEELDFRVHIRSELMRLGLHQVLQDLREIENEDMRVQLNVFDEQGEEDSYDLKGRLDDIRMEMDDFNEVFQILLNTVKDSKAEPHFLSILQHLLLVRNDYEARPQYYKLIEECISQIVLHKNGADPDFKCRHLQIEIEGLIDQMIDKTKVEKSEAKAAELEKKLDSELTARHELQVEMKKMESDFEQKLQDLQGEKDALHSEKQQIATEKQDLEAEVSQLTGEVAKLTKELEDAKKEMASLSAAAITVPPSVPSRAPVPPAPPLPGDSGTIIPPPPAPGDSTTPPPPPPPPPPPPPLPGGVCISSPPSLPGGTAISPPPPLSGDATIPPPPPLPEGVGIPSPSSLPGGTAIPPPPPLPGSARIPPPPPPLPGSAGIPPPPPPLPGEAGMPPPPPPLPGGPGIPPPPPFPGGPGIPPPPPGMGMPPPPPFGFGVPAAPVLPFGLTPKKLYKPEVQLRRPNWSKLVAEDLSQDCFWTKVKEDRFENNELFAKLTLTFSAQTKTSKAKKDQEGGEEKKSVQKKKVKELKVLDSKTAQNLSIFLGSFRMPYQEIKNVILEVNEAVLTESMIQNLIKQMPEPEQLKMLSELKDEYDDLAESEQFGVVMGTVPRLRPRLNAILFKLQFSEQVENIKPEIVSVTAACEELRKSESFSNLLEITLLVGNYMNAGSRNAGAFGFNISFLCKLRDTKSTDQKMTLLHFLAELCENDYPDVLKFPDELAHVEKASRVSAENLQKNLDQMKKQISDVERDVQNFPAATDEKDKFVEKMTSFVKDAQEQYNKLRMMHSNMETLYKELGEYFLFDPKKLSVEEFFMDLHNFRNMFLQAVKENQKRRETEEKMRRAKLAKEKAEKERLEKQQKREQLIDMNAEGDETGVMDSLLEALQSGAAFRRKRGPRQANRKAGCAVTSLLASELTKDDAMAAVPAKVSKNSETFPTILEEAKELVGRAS
Test [5] concerns the target cysteines in MDA-MB-231 and Ramos cells (Homo sapiens, UniProt Q9Y696). Conditions: 200 μM, insitu.
For test [6], the target named is cysteines in MDA-MB-231 and Ramos cells (Homo sapiens, UniProt Q13526). Conditions: 200 μM, insitu.
Chain of cysteines in MDA-MB-231 and Ramos cells (Homo sapiens, UniProt Q13526) (Q13526 whole entry): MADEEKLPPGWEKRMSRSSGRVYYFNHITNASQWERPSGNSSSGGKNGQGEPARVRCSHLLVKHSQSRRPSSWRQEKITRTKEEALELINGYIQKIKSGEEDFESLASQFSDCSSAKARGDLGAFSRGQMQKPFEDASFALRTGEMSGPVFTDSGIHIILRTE
For test [7], the target named is T3, cysteines in MDA-MB-231 and Ramos cells (Homo sapiens, UniProt Q9Y277).
T3 sequence (Q9Y277 1-283): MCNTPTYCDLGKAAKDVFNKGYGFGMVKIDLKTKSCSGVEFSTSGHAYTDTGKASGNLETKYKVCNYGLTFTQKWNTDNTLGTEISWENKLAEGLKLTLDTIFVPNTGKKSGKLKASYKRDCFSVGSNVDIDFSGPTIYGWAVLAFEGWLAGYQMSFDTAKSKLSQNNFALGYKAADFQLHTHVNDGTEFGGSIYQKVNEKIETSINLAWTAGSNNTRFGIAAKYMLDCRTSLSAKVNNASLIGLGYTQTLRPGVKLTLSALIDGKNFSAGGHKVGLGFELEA
Conditions: 200 μM, insitu, 231.

Test [8] deals with cysteines in MDA-MB-231 and Ramos cells (Homo sapiens, UniProt Q14997). Conditions: 200 μM, insitu.
Chain of cysteines in MDA-MB-231 and Ramos cells (Homo sapiens, UniProt Q14997) (Q14997 whole entry): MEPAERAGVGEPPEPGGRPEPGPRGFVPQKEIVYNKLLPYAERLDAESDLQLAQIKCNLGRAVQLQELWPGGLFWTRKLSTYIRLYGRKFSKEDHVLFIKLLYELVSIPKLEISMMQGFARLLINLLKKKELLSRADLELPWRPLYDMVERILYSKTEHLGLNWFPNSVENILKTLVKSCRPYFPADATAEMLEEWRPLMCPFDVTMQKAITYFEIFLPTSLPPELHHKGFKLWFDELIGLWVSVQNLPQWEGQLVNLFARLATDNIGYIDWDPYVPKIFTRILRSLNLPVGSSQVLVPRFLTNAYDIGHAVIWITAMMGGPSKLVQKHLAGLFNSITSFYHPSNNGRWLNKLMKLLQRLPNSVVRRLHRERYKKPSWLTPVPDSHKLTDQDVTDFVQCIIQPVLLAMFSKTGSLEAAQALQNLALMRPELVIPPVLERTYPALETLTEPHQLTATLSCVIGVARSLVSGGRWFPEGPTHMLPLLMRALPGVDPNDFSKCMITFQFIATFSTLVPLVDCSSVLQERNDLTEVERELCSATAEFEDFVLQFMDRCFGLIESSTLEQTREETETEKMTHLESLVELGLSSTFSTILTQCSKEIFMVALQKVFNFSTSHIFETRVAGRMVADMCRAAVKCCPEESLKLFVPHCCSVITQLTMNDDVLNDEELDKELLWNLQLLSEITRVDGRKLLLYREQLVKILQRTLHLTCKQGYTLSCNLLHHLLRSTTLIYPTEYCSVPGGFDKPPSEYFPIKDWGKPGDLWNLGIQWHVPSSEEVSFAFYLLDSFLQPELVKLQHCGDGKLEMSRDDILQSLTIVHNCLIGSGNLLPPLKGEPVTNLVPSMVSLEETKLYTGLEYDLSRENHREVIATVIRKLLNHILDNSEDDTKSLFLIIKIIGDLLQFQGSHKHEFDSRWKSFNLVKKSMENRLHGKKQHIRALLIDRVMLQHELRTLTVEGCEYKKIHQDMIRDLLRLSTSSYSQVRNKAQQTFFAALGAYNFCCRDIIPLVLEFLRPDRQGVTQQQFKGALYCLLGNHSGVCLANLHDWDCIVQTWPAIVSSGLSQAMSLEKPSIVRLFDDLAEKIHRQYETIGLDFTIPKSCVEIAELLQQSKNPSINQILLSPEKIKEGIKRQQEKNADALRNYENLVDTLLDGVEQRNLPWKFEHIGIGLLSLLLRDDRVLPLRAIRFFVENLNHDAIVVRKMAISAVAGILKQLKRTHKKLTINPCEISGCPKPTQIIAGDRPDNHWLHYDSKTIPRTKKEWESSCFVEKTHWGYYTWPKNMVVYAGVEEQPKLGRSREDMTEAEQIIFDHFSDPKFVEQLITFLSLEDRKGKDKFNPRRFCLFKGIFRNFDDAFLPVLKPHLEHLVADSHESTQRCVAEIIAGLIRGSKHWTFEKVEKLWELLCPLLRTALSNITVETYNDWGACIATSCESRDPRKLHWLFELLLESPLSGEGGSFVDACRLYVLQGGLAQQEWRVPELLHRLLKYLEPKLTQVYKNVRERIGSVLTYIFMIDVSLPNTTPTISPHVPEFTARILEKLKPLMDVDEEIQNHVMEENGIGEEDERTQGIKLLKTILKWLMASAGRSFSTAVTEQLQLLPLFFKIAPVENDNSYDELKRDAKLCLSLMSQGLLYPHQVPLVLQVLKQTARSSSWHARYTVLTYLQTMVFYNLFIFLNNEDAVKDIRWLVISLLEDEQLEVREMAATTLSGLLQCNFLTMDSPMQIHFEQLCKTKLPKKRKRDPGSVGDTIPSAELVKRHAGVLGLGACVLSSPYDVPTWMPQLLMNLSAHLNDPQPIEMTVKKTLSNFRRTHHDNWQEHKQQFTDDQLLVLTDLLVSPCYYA
Test [9] has as its target T4, cysteines in MDA-MB-231 and Ramos cells (Homo sapiens, UniProt Q9BRA2).
T4 sequence (Q9BRA2 1-123): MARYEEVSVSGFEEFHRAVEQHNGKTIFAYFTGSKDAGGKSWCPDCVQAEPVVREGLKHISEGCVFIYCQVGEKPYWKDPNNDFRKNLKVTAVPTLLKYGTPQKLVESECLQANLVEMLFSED
Conditions: 200 μM, insitu.

The target of test [10] is T5, cysteines in MDA-MB-231 and Ramos cells (Homo sapiens, UniProt Q5T0N5).
T5 sequence (Q5T0N5 1-605): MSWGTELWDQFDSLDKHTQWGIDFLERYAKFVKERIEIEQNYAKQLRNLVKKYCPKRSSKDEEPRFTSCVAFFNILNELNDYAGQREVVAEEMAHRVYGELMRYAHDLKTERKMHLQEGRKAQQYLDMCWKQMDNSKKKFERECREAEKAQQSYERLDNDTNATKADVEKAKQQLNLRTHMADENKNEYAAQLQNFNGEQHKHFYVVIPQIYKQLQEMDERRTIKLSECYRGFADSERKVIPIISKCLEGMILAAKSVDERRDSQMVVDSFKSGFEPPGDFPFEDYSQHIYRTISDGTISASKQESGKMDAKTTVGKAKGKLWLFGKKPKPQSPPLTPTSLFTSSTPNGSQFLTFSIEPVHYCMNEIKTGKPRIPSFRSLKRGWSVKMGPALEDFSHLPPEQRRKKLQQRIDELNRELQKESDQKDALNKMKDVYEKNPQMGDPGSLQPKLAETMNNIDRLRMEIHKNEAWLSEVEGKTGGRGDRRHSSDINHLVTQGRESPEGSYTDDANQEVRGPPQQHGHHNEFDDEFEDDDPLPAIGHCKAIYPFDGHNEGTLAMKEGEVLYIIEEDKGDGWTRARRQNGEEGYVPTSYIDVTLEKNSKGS
Conditions: 200 μM, insitu, 231.

Test [11] deals with T6, cysteines in MDA-MB-231 and Ramos cells (Homo sapiens, UniProt Q99757).
T6 sequence (Q99757 60-166): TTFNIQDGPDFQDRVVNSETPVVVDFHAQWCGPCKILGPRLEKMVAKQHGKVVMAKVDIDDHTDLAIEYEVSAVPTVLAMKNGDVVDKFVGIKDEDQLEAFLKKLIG
Conditions: 200 μM, insitu, 231.

Structures are written as SMILES.

Chain of cysteines in MDA-MB-231 and Ramos cells (Homo sapiens, UniProt Q9Y696) (Q9Y696 whole entry): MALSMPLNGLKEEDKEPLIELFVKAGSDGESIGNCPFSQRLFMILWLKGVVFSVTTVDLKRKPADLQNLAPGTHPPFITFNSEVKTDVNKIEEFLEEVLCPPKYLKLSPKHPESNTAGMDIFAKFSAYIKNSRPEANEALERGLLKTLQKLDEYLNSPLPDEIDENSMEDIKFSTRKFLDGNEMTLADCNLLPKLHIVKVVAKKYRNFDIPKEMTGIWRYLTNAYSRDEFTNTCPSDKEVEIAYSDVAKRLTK

In the case of `O=C(CCl)NCCc1c[nH]c2ccccc12` [compound 13], the figures for the “isoTOP-ABPP ratio P83731_C6” value in test [1] (231) and in [1] (ramos) were 0.7 and 1.0, respectively. Besides, the “isoTOP-ABPP ratio P78417_C32” value in test [2] (231) and in test [2] (ramos) was 20.0 throughout. Besides, the “isoTOP-ABPP ratio Q13155_C23” value in test [3] came out at 0.9. Also, the “isoTOP-ABPP ratio O60610_C1227” value in test [4] (231) came to 0.7; in [4] (ramos), 0.9. The “isoTOP-ABPP ratio Q9Y696_C35” value in test [5] (231) is 2.3; in test [5] (ramos), 3.2. Further, the “isoTOP-ABPP ratio Q13526_C113” value stood at 0.9 in [6] (231) and 1.0 in test [6] (ramos). In addition, the “isoTOP-ABPP ratio Q9Y277_C65” value in [7] came to 1.0. In addition, the “isoTOP-ABPP ratio Q14997_C1840” value in test [8] (231) turned out to be 0.9; in [8] (ramos), 1.6. Besides, the “isoTOP-ABPP ratio Q9BRA2_C43” value in test [9] (231) amounted to 20.0; in test [9] (ramos), 5.2. Also, the “isoTOP-ABPP ratio Q5T0N5_C69” value in [10] came out at 1.0.
For `O=C(CCl)NC12CC3CC(CC(C3)C1)C2` [compound 21], the “isoTOP-ABPP ratio P83731_C6” value in [1] (231) is on record as 1.0. Further, in test [3], the “isoTOP-ABPP ratio Q13155_C23” value turned out to be 0.9 and the “isoTOP-ABPP ratio Q13155_C291” value was 0.8. Further, the “isoTOP-ABPP ratio O60610_C1227” value in test [4] (231) is given as 20.0. The “isoTOP-ABPP ratio Q9Y696_C35” value in [5] (231) amounted to 1.1. Besides, the “isoTOP-ABPP ratio Q13526_C113” value in test [6] (231) is on record as 0.7. Besides, in [7], the “isoTOP-ABPP ratio Q9Y277_C65” value is reported as 2.9. In test [8] (231), the “isoTOP-ABPP ratio Q14997_C1840” value is given as 1.0. Further, in [9] (231), the “isoTOP-ABPP ratio Q9BRA2_C43” value stood at 16.0. For the same compound, the “isoTOP-ABPP ratio Q5T0N5_C69” value in [10] is recorded as 0.8. Also, the “isoTOP-ABPP ratio Q99757_C90” value in [11] is on record as 4.3.
For the compound `CC(C)CCOCCNC(=O)CCl` [compound 27], the “isoTOP-ABPP ratio P83731_C6” value in test [1] (231) was found to be 0.4. Further, in test [2] (231), the “isoTOP-ABPP ratio P78417_C32” value turned out to be 20.0. For the same compound, in test [3], the “isoTOP-ABPP ratio Q13155_C23” value stood at 0.7 and the “isoTOP-ABPP ratio Q13155_C291” value is given as 0.7. Further, the “isoTOP-ABPP ratio O60610_C1227” value in [4] (231) is listed as 0.5. Also, the “isoTOP-ABPP ratio Q9Y696_C35” value in test [5] (231) is 1.0. Moreover, the “isoTOP-ABPP ratio Q13526_C113” value in test [6] (231) is recorded as 0.5. Further, the “isoTOP-ABPP ratio Q9Y277_C65” value in test [7] was 1.6. In addition, the “isoTOP-ABPP ratio Q14997_C1840” value in test [8] (231) was determined as 20.0. Besides, the “isoTOP-ABPP ratio Q9BRA2_C43” value in test [9] (231) is on record as 20.0. The “isoTOP-ABPP ratio Q5T0N5_C69” value in test [10] was 0.6. For the same compound, in [11], the “isoTOP-ABPP ratio Q99757_C90” value is on record as 6.3.
As for `C=CC(=O)Nc1cc(F)c(N2CCN(C(=O)OC(C)(C)C)CC2)c(F)c1` [compound 38], the “isoTOP-ABPP ratio P83731_C6” value in [1] (231) worked out at 2.1. Moreover, the “isoTOP-ABPP ratio P78417_C32” value in test [2] (231) came to 1.0. In [3], the “isoTOP-ABPP ratio Q13155_C23” value is recorded as 1.4 and the “isoTOP-ABPP ratio Q13155_C291” value is reported as 1.7. Besides, the “isoTOP-ABPP ratio O60610_C1227” value in test [4] (231) is reported as 0.3. Also, the “isoTOP-ABPP ratio Q9Y696_C35” value in [5] (231) is 1.0. The “isoTOP-ABPP ratio Q13526_C113” value in [6] (231) amounted to 1.0. In addition, in test [7], the “isoTOP-ABPP ratio Q9Y277_C65” value came out at 20.0. The “isoTOP-ABPP ratio Q14997_C1840” value in test [8] (231) turned out to be 20.0. Also, in test [9] (231), the “isoTOP-ABPP ratio Q9BRA2_C43” value is 1.1. Besides, the “isoTOP-ABPP ratio Q5T0N5_C69” value in [10] is 1.5. Further, the “isoTOP-ABPP ratio Q99757_C90” value in test [11] is recorded as 3.6.
Take `Cc1ccc(C=C(C#N)C(=O)NCCN2CCOCC2)cc1` [compound 41]: the “isoTOP-ABPP ratio P83731_C6” value in test [1] (231) is 0.3. Also, the “isoTOP-ABPP ratio P78417_C32” value in test [2] (231) came out at 0.3. Besides, in [3], the “isoTOP-ABPP ratio Q13155_C291” value turned out to be 0.7. In test [4] (231), the “isoTOP-ABPP ratio O60610_C1227” value is 0.6. For the same compound, the “isoTOP-ABPP ratio Q9Y696_C35” value in test [5] (231) is on record as 0.6. Moreover, the “isoTOP-ABPP ratio Q13526_C113” value in [6] (231) is listed as 0.6. Besides, in test [7], the “isoTOP-ABPP ratio Q9Y277_C65” value was found to be 1.4. Moreover, the “isoTOP-ABPP ratio Q14997_C1840” value in test [8] (231) was 0.9. Further, the “isoTOP-ABPP ratio Q9BRA2_C43” value in [9] (231) was determined as 0.6. Further, the “isoTOP-ABPP ratio Q5T0N5_C69” value in [10] was determined as 0.6. In addition, the “isoTOP-ABPP ratio Q99757_C90” value in test [11] is 0.5.

Values taken from patent publication US10670605B2, “Cysteine reactive probes and uses thereof” (The Scripps Research Institute, priority 2015, dated 2020).
